Measured values taken from patent publication US20100093643A1 (priority 2006, published 2010).
Where two headings read alike, the source gives them in different places. Square brackets hold non-standard residues; d marks the D form. Ends that are not written are not given here. Phe(4-NO2) = N[C@@H](Cc1ccc([N+](=O)[O-])cc1)C(=O)O; dDab = NCC[C@@H](N)C(=O)O

Key:
outbreed male mice = test: Analgesic activity in vivo, tail pinch method; design: species or system mouse; conditions: for Duration of analgesic effect at ED60-80 / ED50 nmol/animal (dose interval) / Relative analgesic activity morphine = 1: intracisternal administration
Protocol: Analgesic activity of enkephalin analogues was determined by a “tail pinch” method [Ueda H.; Amano H.; Shiomi H.; Takagi H. (1979). Eur. J. Pharmacol., 56, 265-268]. […] Ten mice were used in each experiment.
The studied substances were dissolved in sterile physiological solution and injected in J-shaped needles into the brain of conscious mice at a dose of 10 μl. Control animals received 10 μl of sterile physiological solution. Intravenous administration was into the tail vein. Analgesic activity was tested by pinching the mouse tail with an artery clip with 200 g pressure. The mice who bit the clip within one second after application of pinching were selected for assays. Analgesic activity was defined as latency on the biting response greater than 6 sec. The analgesic tests were performed 5, 15, 30, 60 and 90 min after administration and then every 30 min until the analgesic reaction was stopped. The analgesic activity of the peptides was expressed as a percentage of mice not showing the biting response.

CD-1 male mice = test: Analgesic activity in vivo, hot plate method; design: species or system mouse; conditions: for analgesic effect in words: hot plate
Protocol: Male Swiss albino mice (CD1), weighing 20-22 g were used throughout the study. The animals were housed in solid bottom polycarbonate cages with access to standard laboratory diet (Laboratory Rodent Diet PK-120) and tap water ad libitum, under controlled environmental conditions (temperature:18-26° C., 8 a.m. to 8 p.m. light-dark cycle). Mice were tested only once.
The Hot-plate-meter represents the thermostatic controllable, electro-heated up surface limited by transparent walls (L: 25 cm, W: 25 cm, H: 35 cm). The forward panel of the device is equipped by buttons for the control of time and a temperature mode (Columbus Instruments).
The i.v. administration was performed via tail vein as a bolus injection. The doses for all animals were calculated on the basis of the last value of the individual body weight.
The animals accurately were placed on the preheated hot plate (55±0.5° C.) after i.v. injection of saline or peptides and the latencies to first paw licking and first jumping were measured. The other behavioral reactions were ignored. The animals were removed from a hot surface after the first jumping. A cut-off time of 180 s was used to avoid tissue damage.
To evaluate the hot-plate test responses, the control latencies (t0) and test latencies (t1) were determined after injection of saline or peptides, respectively. The percentage of the maximal possible effect (% MPE) was calculated as % MPE=(t1−t0)/(t2−t0)×100, where the cut-off time (t2) was 180 s.
The latency for the first jumping is considered as the most indicative in the hot-plate test. The area under the time-response curve was calculated by methods described elsewhere (Cicero and Meyer, 1973), to assess the magnitude of antinociception (FIG. 5, see appendix).
The median analgesic dose (ED50) also has been calculated for this parameter.

[1] = test system: rats with ligature of coronary arteries; format: in vivo, rat; design: myocardial necrosis size: unit not given here
[2] = test system: peripheral opiate receptors, mouse vas deferens (MVD); test: MVD bioassay, suppression of electrically induced contraction
Protocol: Brit. J. Pharmacol., 35, 10-28]. The longitudinal muscle of ileum from guinea pig of any sex (weight 350-500 g) was carefully separated from underlying circular muscle and placed into a small bath with Krebs solution at 36° C.
The solution was constantly aerated. A constant load of 0.2 g was applied to the tissue. The tissue was stimulated by means of the ring platinum electrodes by single impulses of […] duration with 0.1 Hz frequency. […] Vas deferens of mice (weight 27 to 30 g) were placed into a bath with modified Krebs solution (not containing magnesium sulphate) at 31° C. The substances under study were dissolved in distilled water. The inhibiting activity of the compounds was determined by accumulating doses, adding increasing concentrations of the compounds without washing. The activity of the preparations was expressed as IC50 in nmol/l. The results obtained in 8-10 tests were statistically processed using Student's criterion.

[3] = test system: peripheral opiate receptors, guinea pig ileum (GPI, predominantly μ-type of opioid receptor); conditions: ratio of relative potencies GPI to MVD
[4] = target: T1, peripheral opiate receptors, guinea pig ileum (GPI, predominantly μ-type of opioid receptor) (Cavia porcellus, UniProt A0ACM8Q262); conditions: [Leu^5]-enkephalin = 100
T1 construct: other: guinea pig ileum longitudinal muscle, electrical stimulation; GPI Relative potency, %; other: GPI assay

[5] = test system: BALB mice under normobaric hypoxic hypoxia; test: Antihypoxic action, lifetime of mice under normobaric hypoxic hypoxia; format: in vivo, mouse
Protocol: Antihypoxic action of the new enkephalin analogue (1) was determined by the measurement of lifetime duration in mice under the normobaric hypoxic hypoxia conditions.
The experiments were conducted on BALB-bread mice weighing 20 to 22 g. The normobaric hypoxic hypoxia conditions were modelled by placing the animals in hermetic camera, containing Ca(OH)2 to absorb the excess of carbon dioxide. The substances studied were injected intraperitoneally 1 min. before the placing of animals in the hermetic camera. The peptides were used at doses 1.0 mg/kg. […] Sodium oxybutyrate at highest therapeutic dose was used as comparative compound. The lifetime was estimated as the time when the animals stopped making breathing movements.

[6] = test system: male Sprague-Dawley rats, left coronary artery occlusion (LCAO); test: Cardiac ischemia rat model, left coronary artery occlusion 25 min / reperfusion 120 min, infarct size; format: in vivo
[7] = test system: male Sprague-Dawley rats, left coronary artery occlusion (LCAO); test: as above; format: in vivo; remark: listed apart in the source
Protocol: Male Sprague-Dawley (CD) rats weighing 280-380 g were used throughout this study. The rats were anesthetized by i.p. administration of urethane (1-1.5 g/kg). A tracheotomy was performed, and the trachea of the animal was intubated with a cannula connected to a rodent ventilator (model UGO BASILE 7025). Body temperature was maintained at 37° C. by use of a heating pad and monitored using rectally placed temperature probes connected to a digital thermometer. Body temperature is monitored and maintained at 37±1° C.)
The femoral artery was isolated and cannulated to measure blood pressure (BP) by a BP transducer (model PN:1891-E45, DTX™, Singapore) connected with computer. Mean arterial pressure and heart rate was calculated by special software. The right femoral vein was cannulated to allow administration of peptides or saline and methylene blue dye.
A left thoracotomy was performed to expose the heart at the fifth intercostal space. The pericardium was removed and a suture was placed under the left coronary artery in the groove between the pulmonary outflow track and left ventricle. With the tubing placed on the myocardial surface, the ligature could be tightened around the left coronary artery and clamped to provide a readily reversible occlusion of blood flow. Hemodynamics and body temperature were monitored during the procedure.
The protocol of experiments conducted in urethane-anesthetized open-chest rats subjected to regional myocardial ischemia-reperfusion is illustrated in FIG. 1 (see appendix).
All animals were subjected to 25 minutes of occlusion and 2 hours of reperfusion. Several doses (0.1 μg/kg-1 μg/kg) of the peptide (4) were given 5 minutes before occlusion. The coronary artery in all rats was occluded by pulling up on the suture and clamping it with plastic tube. At 25 minutes, the clump was released and coronary artery reperfusion was allowed. The surface of the left ventricle pinks up. After 120 min of reperfusion, the ligature was again tightened to occlude the left coronary artery, and […] methylene blue dye (0.4 ml of 10% w/v in saline) was injected. Once the dye had stained the heart, except in the area at risk, clearly demarcating the total area at risk (AAR), the heart was then quickly removed from the animal and washed out in a water, and the atria, valvular material and right ventricular wall were removed leaving just the left ventricle. The left ventricle was then sectioned transversely into 2-mm slices. The area defined as normal (dyed blue) was separated from the AAR (not dyed blue), and the slices are stained by incubation in 1% 2,3,5-triphenyltetrazolium chloride in pH 7.4 buffer for 15 min at 37° C. Infarcted areas appeared whitish after 2,3,5-triphenyltetrazolium chloride staining, whereas non-infarcted, or viable, areas appeared reddish in colour. Then the slices were immersed in 10% formalin for 5 minutes for fixing.
The slices were photographed. The areas of infarct (2,3,5-triphenyltetrazolium chloride negative) and risk zone (2,3,5-triphenyltetrazolium chloride stained) for each slice are traced and digitized using a computerized planimetry technique. The areas of each region were estimated using computerized planimetry (program “ImageTool”)
The infarct area was divided by the area at risk to determine the ratio of the infarct area/area at risk. (IS/AAR). Data were presented as infarct size (IS) as a percentage of the AAR (i.e., % IS/AAR) for statistical analysis of cardioprotective effects (decreased % IS/AAR). The statistical comparison for in vivo infarct reduction was made with vehicle controls.
A dose-response curve for the cardioprotective effects of peptide (4), compared with vehicle (n=12), was produced with i.v. peptide (4) doses of 0.01 (n=6), 0.1 (n=12), 1.0 (n=12) μg/kg, and 0.005 (n=12) mg/kg administered 5 min before LCAO in a 1 ml/kg dosing volume as a bolus. […]

[8] = intravenous administration, time point of 15 min
[9] = i.v., dose 8 μmol/kg, jump latency time (FIG. 4)
[10] = 0.1 μg/kg i.v. 5 min before occlusion
[11] = 5 μg/kg i.v. 5 min before occlusion

T1 sequence (A0ACM8Q262 1-400): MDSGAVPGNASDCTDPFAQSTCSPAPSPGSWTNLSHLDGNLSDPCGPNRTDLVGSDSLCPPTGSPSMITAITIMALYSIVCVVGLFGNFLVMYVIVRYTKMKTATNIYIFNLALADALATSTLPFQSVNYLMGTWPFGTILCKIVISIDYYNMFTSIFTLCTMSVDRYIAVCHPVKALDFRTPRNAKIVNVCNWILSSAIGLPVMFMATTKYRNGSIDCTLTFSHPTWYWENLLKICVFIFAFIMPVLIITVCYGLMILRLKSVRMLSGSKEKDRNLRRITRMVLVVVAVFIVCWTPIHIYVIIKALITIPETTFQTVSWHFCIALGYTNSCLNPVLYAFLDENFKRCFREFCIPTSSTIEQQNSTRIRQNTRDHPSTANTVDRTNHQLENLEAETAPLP

Molecule: Tyr-Gly-Gly-Phe-Met [[Met^5]-enkephalin, reference compound]
- Duration of analgesic effect at ED60-80 (outbreed male mice): 15 min
- ED50 nmol/animal (dose interval) (outbreed male mice): 154 (90-261) nmol/animal
- Relative analgesic activity morphine = 1 (outbreed male mice): 0.008

Molecule: Y[dK](Ac)G[Phe(4-NO2)]-NH2 [Peptide 2]
- ED50 (jump latency) (CD-1 male mice; [8]): 1.7 mg/kg
- analgesic activity exceeding that of morphine (CD-1 male mice; intravenous, from ED50 at 15 min): 1.5 times

Molecule: CC(C)NCC(O)COc1cccc2ccccc12.Cl (stereo not drawn) [anaprilinum, reference compound]
- myocardial necrosis size ([1]; comparison medicines at highest therapeutic doses, observation time 12 hours): 53.80 ± 1.90

Molecule: Tyr-Gly-Gly-Phe-Leu [[Leu^5]-enkephalin, reference compound]
- Duration of analgesic effect at ED60-80 (outbreed male mice): 15 min
- ED50 nmol/animal (dose interval) (outbreed male mice): 174 (102-281) nmol/animal
- Relative analgesic activity morphine = 1 (outbreed male mice): 0.007
- MVD Relative potency, % ([2]; [Leu^5]-enkephalin = 100): 100%
- IC50 ([2]; mouse vas deferens, electrical stimulation): 20 ± 1 nM
- GPIrel/MVDrel [3]: 1
- GPI Relative potency, % [4]: 100%

Molecule: CN1CC[C@]23c4c5ccc(O)c4O[C@H]2[C@@H](O)C=C[C@H]3[C@H]1C5 [Morphine, reference compound]
- ED50 (outbreed male mice; Mus musculus, intravenous administration, read-out: ED50 μmol/kg (dose interval)): 18 µmol/kg
- ED50 (CD-1 male mice; Mus musculus, 0.25 h, intravenous administration, time point of 15 min, read-out: ED50 (jump latency)): 2.67 mg/kg

Molecule: O=[N+]([O-])OCC(CO[N+](=O)[O-])O[N+](=O)[O-] [nitroglycerine, reference compound]
- myocardial necrosis size ([1]; rat, in vivo): 54.04 ± 1.76
- CPK ([1]; rat, in vivo, 0.05 mg/kg): 101.1 ± 6.1 units/l
- HF-CPK ([1]; rat, in vivo, 0.05 mg/kg): 19.8 ± 1.1 units/l
- Lactate ([1]; rat, in vivo, 0.05 mg/kg): 1.80 ± 0.09 mmol/L

Molecule: Tyr-D-Orn(Ac-Asn)-Gly-Phe(p-NO2)—NH2 [Peptide 3]
- delay of analgesic effect (CD-1 male mice; [9]): 15 min
- analgesic effect in words (CD-1 male mice; i.v.): practically similar to that of morphine
- ED50 (jump latency) (CD-1 male mice; [8]): 2.04 mg/kg

Molecule: O=C(O)CCCO [Sodium oxybutyrate, reference compound]
- Duration of life ([5]; 1000.0 mg/kg (highest therapeutic dose) i.p. 1 min before hermetic chamber): 15.5 ± 0.4 min
- lifetime increase in comparison with the control experiments ([5]; 1000.0 mg/kg i.p.): 24%

Molecule: Tyr-D-Orn(Ac-Gly)-Gly-Phe(p-NO2)—NH2 [Peptide 5]
- analgesic effect in words (CD-1 male mice; i.v.): practically similar to that of morphine
- ED50 (jump latency) (CD-1 male mice; [8]): 1.99 mg/kg

Molecule: Y[dDab](Ac)G[Phe(4-NO2)]-NH2 [Peptide 4]
- time of maximum analgesic effect (CD-1 male mice; [9]): 30 min
- analgesic effect in words (CD-1 male mice; i.v.): weaker than the effect of the other four peptides tested
- IS/AAR, level of ischemic damage ([6]; 1.0 μg/kg i.v. immediately after removal of the LCAO (start of reperfusion)): 32.5±2.4%
- infarct size as % of Area at Risk (IS/AAR) ([6]; doses between 0.2 μg/kg and 3.2 μg/kg, 5 min before ischemia (dose-response curve)): smaller than 30%
- IS/AAR, % (infarct size as % of area at risk) ([7]; 0.01 μg/kg i.v. 5 min before occlusion): 45.1±4.6%
- IS/AAR, % (infarct size as % of area at risk) [7, 10]: 32.0 ± 3.5%
- Relative Reduction of Infarct size, % (Control = 0) [7, 10]: 25.4%
- IS/AAR, % (infarct size as % of area at risk) ([7]; 1 μg/kg i.v. 5 min before occlusion): 26.0 ±3.5%
- IS/AAR, % (infarct size as % of area at risk) [7, 11]: 32.5 ± 2.5%
- Relative Reduction of Infarct size, % (Control = 0) [7, 11]: 24.2%
